Results from patent publication US6336949B1, “Slow release urea fertilizer composition and a process for the preparation of the said composition” (Council of Scientific & Industrial Research, priority 1999, dated 2002).

What was measured:
Actinomycetes = assay: Total actinomycetes population in soil; format: cell-based; conditions: no coating material; urea 100 mg N kg^−1 soil
Procedure: (§1) Representative soil samples were analyzed for different forms of N i.e., urea N, NH4 and NO3-N at regular intervals for two weeks to assess the nitrification inhibitory properties of the materials in question following the standard procedures (Douglas and Bremner, 1970, Soil Sci. Soc. Am. Proc. 34:859-862). Another set of experiment was conducted to assay the total bacterial population, total actinomycetes population and nitrifying bacteria viz., Nitrosomons and Nitrobacber (Alexander and Clark, 1965, In. Method of Soil Analysis Part II (CA Black Eds) Am. Soc .Agron. Inc. Wisconsin, U.S.A.; KenKnight and Torariko. 1973, Agrokhimiya 7:3)

urease = conditions: no coating material; urea 100 mg N kg^−1 soil; 24 hours of incubation
Total bacteria = assay: Total bacterial population in soil; format: cell-based; conditions: no coating material; urea 100 mg N kg^−1 soil
Procedure: as §1

Nitrosomonus = Nitrosomonus population in soil; format: cell-based; conditions: no coating material; urea 100 mg N kg^−1 soil
Procedure: as §1

[1] = system: menthol mint (Mentha arvensis); assay: Greenhouse pot culture experiment: herb yield, N accumulation, apparent N recovery; format: in vivo; conditions: urea N 100 mg kg^−1, coating materials added at 1.00% w/w (Nil for urea alone)
Procedure: To confirm the results of the incubation a pot culture experiment was conducted subsequently taking menthol mint (Mentha arvensis) as the test crops. Eight kg soil (<2 mm) were put in plastic container. The same fertilizers coating treatments as were in incubation experiment were imposed in this experiment, except that instead of two levels of coating materials, these were applied at 1.00% on v/w basis. The experiment was laid in a completely randomized design with four replications. The soils were analyzed for mineral forms of N at regular intervals. In addition, the plant samples were analyzed for N accumulation and apparent N recovery. [formula]

Nitrobacter = Nitrobacter population in soil; format: cell-based; conditions: no coating material; urea 100 mg N kg^−1 soil
Procedure: as §1

SMILES: NC(N)=O [Urea alone, Urea]
- Actinomycetes (Actinomycetes): 5.66 × 104, g^−1 soil
- Urease activity (urease): 66.5 μg NH4—N liberated/g soil/hour
- Total bacteria (Total bacteria): 4.00 × 105, g^−1 soil
- Nitrosomonus (Nitrosomonus): 3.30 × 103, g^−1 soil
- Apparent recovery (apparent N recovery) [1]: 29.1%
- Herb yield [1]: 42.8 g pot^−1
- N accumulation [1]: 450 mg pot^−1
- Apparent recovery (apparent N recovery) ([1]; listed as urea alone): 29%
- Nitrobacter (Nitrobacter): 14.00 × 103, g^−1 soil
